Results reported in patent US8697747B2, “Enhancing coagulation or reducing fibrinolysis” (THe UAB Research Foundation, priority 2009, dated 2014).

Tested on: α2-antiplasmin deficient plasma
Test: CLSM thrombelastography with tPA, α2-antiplasmin deficient plasma
Type: biochemical, human
Experimental: Pooled normal plasma (George King Bio-Medical, Overland Park, Kans.) anticoagulated with sodium citrate was utilized for experimentation. […] Factor XIII (FXIII) deficient plasma anticoagulated with sodium citrate was also obtained from the same vendor.
Plasma Sample Composition. The final volume for all subsequently described plasma sample mixtures was 359.4 μL. Sample composition consisted of 316 μL of plasma; 10 μL of tissue factor (0.1% final concentration in 0.9% NaCl; Diagnostica Stago, Asnieres, France), 3.6 μL of dimethyl sulfoxide (DMSO) or DMSO with CORM-2 (Sigma-Aldrich, St. Louis, Mo.) or DMSO with inactivated CORM-2 (iCORM-2), 10 μL of tissue-type plasminogen activator (tPA, 580 U/μg, Genentech, Inc., San Francisco, Calif.) diluted with 10 mM potassium phosphate buffer (pH 7.4) for a final activity of 100 IU/mL, and 20 μL of 200 mM CaCl2. […] This concentration of CORM-2 was chosen because the concentration of CO released would be expected to be in the mid to lower ranges used in previously reported ex vivo, in vitro, and cell-based experiments (Motterlini et al. 2002; Megias et al. 2007; Chlopicki et al. 2006; Dong et al. 2008). […] (Motterlini et al. 2005). While CORM-2 decays slowly in DMSO, DMSO was added to the dry compound just prior to placement into the plasma mixture. The specific series of experiments are subsequently presented.
Assessment of the Effects of CORM-2 on CLSM Parameters in FXIII, PAI-1, TAFI and α2-antiplasmin Deficient Plasmas. These experiments were performed to elucidate the roles played by antifibrinolytic enzymes during CORM-2 mediated modulation of fibrinolysis. Samples of the various deficient plasmas were exposed to 0 or 100 μM of CORM-2 (n=8 per condition). Samples underwent CLSM analyses as subsequently described.
Clot Lifespan Model Analyses. As described in Example 1, plasma sample mixtures were placed in a disposable cup in a computer-controlled THROMBELASTOGRAPH® hemostasis system (Model 5000, Haemoscope Corp., Niles, Ill.), with addition of CaCl2 as the last step to initiate clotting. Data were collected until clot lysis time occurred. […] As this model involves complete fibrinolysis, TTG is equivalent to ACL, so ACL was not presented as it provides no additional information.
Statistical Analyses. Data are presented as median (1st, 3rd quartiles). […] Nonlinear and linear analyses and curve fitting of the various CORM-2 concentrations effects on CLSM variables were performed with commercially available software (SigmaPlot 11.0, Systat Software, Inc., San Jose, Calif.). Analyses of the effects of CORM-2 and iCORM-2 on CLSM variables in normal plasma were conducted with Kruskal-Wallis one way analysis of variance on ranks, whereas Mann-Whitney rank sum tests were used to assess the effects of CORM-2 on CLSM variables in the various immunodepleted/congenitally deficient plasma types (SigmaStat 3.1, Systat Software, Inc., San Jose, Calif.). Graphical representation of the data was generated with commercially available software (SigmaPlot 11.0, Systat Software, Inc., San Jose, Calif.; CorelDRAW 12.0, Corel Corporation, Ottawa, Ontario, Canada; Origin 7.5, OriginLab Corp., Northampton, Mass.). A P value of <0.05 was considered significant.

[1] = 100 μM CORM-2, tPA 100 IU/mL, median, n=8

[C-]#[O+].[C-]#[O+].[C-]#[O+].[C-]#[O+].[C-]#[O+].[C-]#[O+].[Cl][Ru][Cl].[Cl][Ru][Cl] [CORM-2, tricarbonyldichlororuthenium (II) dimer]
CGT (clot growth time) [1]: 188 s | CLS (clot lifespan) [1]: 378 s | CLT (clot lysis time) [1]: 190 s | MRL (maximum rate of lysis) [1]: −10.0 -dynes/cm^2/sec | MRTG (maximum rate of thrombus generation) [1]: 10.1 dynes/cm^2/sec | TMRL (time to maximum rate of lysis) [1]: 68 s | TMRTG (time to maximum rate of thrombus generation) [1]: 160 s | TTG (total thrombus generation) [1]: 231 dynes/cm^2 | increase of CLS (100 μM CORM-2 vs unexposed): 14% | increase of the velocity of clot formation (100 μM CORM-2 vs unexposed): 35% | prolongation of CLT (100 μM CORM-2 vs unexposed): 23%
